Reference: US9926264B2, “Phenylcarbamate derivatives as formyl peptide receptor modulators” (Allergan, Inc., priority 2013, dated 2018)

Molecular target: T1, FPR2 (Homo sapiens, UniProt P25090)
T1 construct: expressed in transfected cells; host or cells: CHO-Gα16 cells
T1 sequence (P25090 1-351): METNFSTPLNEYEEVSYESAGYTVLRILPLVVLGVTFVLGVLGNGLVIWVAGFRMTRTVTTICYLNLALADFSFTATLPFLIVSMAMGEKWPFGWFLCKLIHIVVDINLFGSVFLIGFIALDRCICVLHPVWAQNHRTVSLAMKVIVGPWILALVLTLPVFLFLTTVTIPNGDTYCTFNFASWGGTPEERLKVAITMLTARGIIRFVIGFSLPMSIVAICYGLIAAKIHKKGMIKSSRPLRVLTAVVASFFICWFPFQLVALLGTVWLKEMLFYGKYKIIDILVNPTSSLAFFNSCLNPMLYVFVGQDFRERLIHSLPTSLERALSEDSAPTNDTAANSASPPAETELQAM
Test: compound-induced calcium activity on FLIPR Tetra in CHO-Gα16 cells stably expressing FPR2
Assay type: cell-based
Conditions: for Emax: efficacy value in brackets after EC50, read-out: FPR2 Gα16-CHO (% eff); for EC50: tested 0.61 to 10,000 nM
Description: CHO-Gα16 cells stably expressing FPR2 were cultured in (F12, 10% FBS, 1% PSA, 400 μg/ml geneticin and 50 μg/ml hygromycin) and HEK-Gqi5 cells stable expressing FPR1 were cultured in (DMEM high glucose, 10% FBS, 1% PSA, 400 μg/ml geneticin and 50 μg/ml hygromycin). In general, the day before the experiment, 18,000 cells/well were plated in a 384-well clear bottom poly-D-lysine coated plate. The following day the screening compound-induced calcium activity was assayed on the FLIPR^Tetra. The drug plates were prepared in 384-well microplates using the EP3 and the MultiPROBE robotic liquid handling systems. Compounds were tested at concentrations ranging from 0.61 to 10,000 nM. Results are expressed as EC50 (nM) and % efficacy values.

SMILES | Emax | EC50
CC(C)C[C@H](OC(=O)Nc1ccc(C(F)(F)F)cc1)C(=O)N(CC(=O)OC(C)(C)C)C(C)C [Compound 30, tert-Butyl (Isopropyl{(2S)-4-methyl-2-[({[4-(trifluoromethyl)phenyl]amino}carbonyl)oxy]pentanoyl}amino)acetate] | 76% | 301 nM
CCN(CC(=O)OC(C)(C)C)C(=O)[C@H](CC(C)C)OC(=O)Nc1ccc(Br)cc1 [Compound 11, tert-Butyl {[(2S)-2-{[(4-Bromophenyl)carbamoyl]oxy}-4-methylpentanoyl](ethyl)amino}acetate] | 97% | 8 nM
CC(C)C[C@H](OC(=O)Nc1ccc(C(F)(F)F)cc1)C(=O)OC(C)(C)C [Intermediate 2, tert-Butyl (2S)-4-Methyl-2-({[4-(trifluoromethyl)phenyl]carbamoyl}oxy)pentanoate] | 56% | 10000 nM
CC(C)C[C@H](OC(=O)Nc1ccc(C(F)(F)F)cc1)C(=O)NCCO [Compound 6, (2S)-1-[(2-Hydroxyethyl)amino]-4-Methyl-1-oxopentan-2-yl [4-(trifluoromethyl)phenyl]carbamate] | 75% | 146 nM
CC(C)C[C@H](OC(=O)Nc1ccc(Br)cc1)C(=O)N(CC(=O)OC(C)(C)C)C(C)C [Compound 10, tert-Butyl {[(2S)-2-{[(4-Bromophenyl)carbamoyl]oxy}-4-methylpentanoyl](propan-2-yl)amino}acetate] | 103% | 11 nM
CC(C)C[C@H](OC(=O)Nc1ccc(Br)cc1)C(=O)NCCNC(=O)OC(C)(C)C [Compound 33, (1S)-1-[({2-[(tert-butoxycarbonyl)amino]ethyl}amino)carbonyl]-3-methylbutyl (4-bromophenyl)carbamate] | 103% | 397 nM
CC(=O)OCCNC(=O)[C@H](CC(C)C)OC(=O)Nc1ccc(C(F)(F)F)cc1 [Compound 18, 2-{[(2S)-4-Methyl-2-({[4-(trifluoromethyl)phenyl]carbamoyl}oxy)pentanoyl]amino}ethyl acetate] | 89% | 195 nM
CCCN(CC(=O)OC(C)(C)C)C(=O)[C@H](CC(C)C)OC(=O)Nc1ccc(Br)cc1 [Compound 9, tert-Butyl {[(2S)-2-{[(4-Bromophenyl)carbamoyl]oxy}-4-methylpentanoyl](propyl)amino}acetate] | 104% | 4.4 nM

Now those with a lower EC50, led by results:

Emax | EC50 | SMILES
100% | 0.66 nM | CCN(Cc1nnn[nH]1)C(=O)[C@H](CC(C)C)OC(=O)Nc1ccc(C(F)(F)F)cc1 [Compound 32, (1S)-1-{[ethyl(1H-tetrazol-5-ylmethyl)amino]carbonyl}-3-methylbutyl [4-(trifluoromethyl)phenyl]carbamate]
105% | 0.32 nM | CC(C)C[C@H](OC(=O)Nc1ccc(Br)cc1)C(=O)N(CC(=O)O)C(C)C [Compound 23, {[(2S)-2-{[(4-Bromophenyl)carbamoyl]oxy}-4-methylpentanoyl](propan-2-yl)amino}acetic acid]
95% | 0.3 nM | CCN(Cc1nnn[nH]1)C(=O)[C@H](CC(C)C)OC(=O)Nc1ccc(Br)cc1 [Compound 31, (1S)-1-{[ethyl(1H-tetrazol-5-ylmethyl)amino]carbonyl}-3-methylbutyl (4-bromophenyl)carbamate]
98% | 0.29 nM | CCN(CC(=O)O)C(=O)[C@H](CC(C)C)OC(=O)Nc1ccc(C(F)(F)F)cc1 [Compound 26, {Ethyl[(2S)-4-methyl-2-({[4-(trifluoromethyl)phenyl]carbamoyl}oxy)pentanoyl]amino}acetic acid]
106% | 0.25 nM | CC(C)C[C@H](OC(=O)Nc1ccc(Br)cc1)C(=O)N(C)CC(=O)O [Compound 21, {[(2S)-2-{[(4-Bromophenyl)carbamoyl]oxy}-4-methylpentanoyl](methyl)amino}acetic acid]
